Consider 27 molecules from the supplement of paper PMC12613149.

The nature of data set [1]: collision cross section (TIMS, N2 drift gas) of the primary ion; higher = larger gas-phase ion size.
Data set [2] in a line: reversed-phase LC retention time (C18, 15 min MeOH gradient); higher = more hydrophobic / later elution.
The mark [3] stands for this setting: ionization mode: ESI+, ion species: [M+H]+.
Where [4] appears, read: ionization mode: ESI-, ion species: [M-H]-.

Molecule `CN(C1CCCCC1)C1CCCCC1` [N-Methyl-dicyclohexylamine] registered a collision cross section in data set [1] (setting [3]) of 148.45 Å². Further, the “reversed-phase LC retention time” value in data set [2] (setting [3]) was 9.45 min.
`CNS(=O)(=O)c1ccccc1` [N-Methylbenzenesulfonamide] yielded a collision cross section in data set [1] (setting [4]) of 134.48 Å². For the same molecule, the “reversed-phase LC retention time” value in data set [2] (setting [4]) was 8.4 min.
`CCCCCCCCCCCCNC` [N-Methyldodecylamine]: in data set [1] (setting [3]), the collision cross section is reported as 167.22 Å². Besides, the “reversed-phase LC retention time” value in data set [2] (setting [3]) stood at 15.5 min.
The like results for `c1ccc(Nc2cccc3ccccc23)cc1` [N-Phenyl-1-naphthylamine] were, in that order, 153.28 Å² and 16.1 min.
The like results for `CC(C)Nc1ccc(Nc2ccccc2)cc1` [N-isopropyl-N-phenyl-p-phenylenediamine] were, in that order, 171.67 Å² and 8.47 min.
In data set [1] (setting [3]), `CCN(CC)C(=O)C(C)Oc1cccc2ccccc12` (stereo unspecified) [Napropamide] registered a collision cross section of 164.64 Å². The “reversed-phase LC retention time” value in data set [2] (setting [3]) came out at 14.9 min.
Take `COc1ccc2cc(C(C)C(=O)O)ccc2c1` (stereo unspecified) [Naproxen]: the collision cross section in data set [1] (setting [3]) is 151.76 Å². Besides, in data set [2] (setting [3]), the “reversed-phase LC retention time” value was determined as 13.8 min.
In the case of `COc1cc(OC)nc(NC(=O)NS(=O)(=O)c2ncccc2C(=O)N(C)C)n1` [Nicosulfuron], the figures for the collision cross section in data set [1] (setting [3]) and in data set [1] (setting [4]) were 193.46 Å² and 194.5 Å², respectively. Further, the “reversed-phase LC retention time” value in data set [2] (setting [3]) worked out at 11.4 min; in data set [2] (setting [4]), 8.07 min.
`CN1CCCC1c1cccnc1` (stereo unspecified) [Nicotine]: the collision cross section in data set [1] (setting [3]) was found to be 135.54 Å². Also, the “reversed-phase LC retention time” value in data set [2] (setting [3]) came out at 2.26 min.
On to `CCOC(=O)C1=C(C)NC(C)=C(C(=O)OC)C1c1cccc([N+](=O)[O-])c1` (stereo unspecified) [Nitrendipin], for which the collision cross section is on record as 184.47 Å² in data set [1] (setting [3]) and 183.62 Å² in data set [1] (setting [4]). Also, the “reversed-phase LC retention time” value in data set [2] (setting [3]) came to 14.4 min; in data set [2] (setting [4]), 14.7 min.
`O=C1CN(/N=C/c2ccc([N+](=O)[O-])o2)C(=O)N1` [Nitrofurantoin] came in with a collision cross section in data set [1] (setting [4]) of 149.37 Å². The “reversed-phase LC retention time” value in data set [2] (setting [4]) was 6.35 min.
In the same order, the values of `CC(C)CC(C)CC(C)c1ccc(O)cc1` (stereo not drawn) [Nonylphenol_isomers] are 161.38 Å² and 17.9 min.
In data set [1] (setting [3]), `C#C[C@]1(O)CC[C@H]2[C@@H]3CCC4=CC(=O)CC[C@@H]4[C@H]3CC[C@@]21C` [Norethindrone] showed a collision cross section of 177.62 Å². Also, the “reversed-phase LC retention time” value in data set [2] (setting [3]) came to 13.9 min.
The like results for `CCn1cc(C(=O)O)c(=O)c2cc(F)c(N3CCNCC3)cc21` [Norfloxacin] were, in that order, 173.95 Å² and 8.08 min.
The like results for `C#C[C@]1(OC(C)=O)CC[C@H]2[C@@H]3CCC4=C/C(=N/O)CC[C@@H]4[C@H]3CC[C@@]21CC` [Norgestimate] were, in that order, 200.98 Å² and 16.3 min.
`c1ccc2c(c1)[nH]c1cnccc12` [Norharmane]: the collision cross section in data set [1] (setting [3]) stood at 132.84 Å²; in data set [1] (setting [4]) it was 129.43 Å². For the same molecule, the “reversed-phase LC retention time” value in data set [2] (setting [3]) turned out to be 8.24 min; in data set [2] (setting [4]), 12.9 min.
The like results for `CC1(C)CC(NC(=O)c2cccc(C(=O)NC3CC(C)(C)NC(C)(C)C3)c2)CC(C)(C)N1` [Nylostab S-EED] were, in that order, 235.31 Å², 232.92 Å², 8.03 min and 11.7 min.
Take `CC1COc2c(N3CCN(C)CC3)c(F)cc3c(=O)c(C(=O)O)cn1c23` (stereo unspecified) [Ofloxacin]: in data set [1] (setting [3]), the collision cross section is 182.54 Å². Also, the “reversed-phase LC retention time” value in data set [2] (setting [3]) was 7.93 min.
The like results for `CCCCCCCC/C=C\CCCCCCCC(N)=O` [Oleic acid amide] were, in that order, 177.48 Å² and 18.5 min.
As for `COc1ccc2nc(SCc3ncc(C)c(OC)c3C)[nH]c2c1` [Omeprazole sulfide], the collision cross section in data set [1] (setting [3]) was 179.62 Å²; in data set [1] (setting [4]) it was 181.72 Å². Moreover, the “reversed-phase LC retention time” value was found to be 11.2 min in data set [2] (setting [3]) and 13.9 min in data set [2] (setting [4]).
With `CNC(=O)CSP(=O)(OC)OC` [Omethoate], the collision cross section in data set [1] (setting [3]) stood at 135.65 Å². For the same molecule, the “reversed-phase LC retention time” value in data set [2] (setting [3]) stood at 6.04 min.
On to `Cc1nccn1CC1CCc2c(c3ccccc3n2C)C1=O` (stereo unspecified) [Ondansetron], for which the collision cross section in data set [1] (setting [3]) turned out to be 173.57 Å². Also, the “reversed-phase LC retention time” value in data set [2] (setting [3]) was found to be 9.49 min.
`CCCCCCCCCCC[C@@H](C[C@@H]1OC(=O)[C@H]1CCCCCC)OC(=O)[C@H](CC(C)C)NC=O` [Orlistat] came in with a collision cross section in data set [1] (setting [4]) of 232.61 Å². Further, the “reversed-phase LC retention time” value in data set [2] (setting [4]) worked out at 19.9 min.
`CC(C)Oc1cc(-n2nc(C(C)(C)C)oc2=O)c(Cl)cc1Cl` [Oxadiazone] returned a collision cross section in data set [1] (setting [3]) of 182.66 Å². For the same molecule, in data set [2] (setting [3]), the “reversed-phase LC retention time” value amounted to 16.9 min.
In the case of `O=C1Nc2ccc(Cl)cc2C(c2ccccc2)=NC1O` (stereo unspecified) [Oxazepam], the collision cross section was found to be 164.08 Å² in data set [1] (setting [3]) and 162.74 Å² in data set [1] (setting [4]). The “reversed-phase LC retention time” value came out at 13.1 min in data set [2] (setting [3]) and 13.4 min in data set [2] (setting [4]).
Regarding `NC(=O)N1c2ccccc2CC(=O)c2ccccc21` [Oxcarbazepine], the collision cross section in data set [1] (setting [3]) is on record as 155.46 Å². Also, the “reversed-phase LC retention time” value in data set [2] (setting [3]) came to 10.7 min.
For `CCN(CC)CC#CCOC(=O)C(O)(c1ccccc1)C1CCCCC1` (stereo unspecified) [Oxybutynin], the collision cross section in data set [1] (setting [3]) was 187.9 Å². Further, the “reversed-phase LC retention time” value in data set [2] (setting [3]) was found to be 13.4 min.
